Data from patent US20010009926A1, “Mesozeaxanthin formulations for treatment of retinal disorders” (THE HOWARD FOUNDATION, priority 1993, published 2001).
Blank lines part the entries; values can stand above or below the compound they belong to.

Columns and labels:
Assay type in all cases: in vivo, human
[1] = Skin colour observation during lutein supplementation; settings: each subject; after several weeks of administration, 30 mg lutein per day
[2] = Serum lutein by HPLC during oral lutein ester supplementation; settings: subjects three, equivalent of 30 mg lutein per day as lutein esters in canola oil, within the first week
Method: Serum lutein and zeaxanthin was measured by conventional HPLC.
Two healthy adult males (of age/weight 42 year/60 kg and 51 years/61 kg) ingested the equivalent of 30 mg of lutein per day in the form of lutein esters (source: marigold flowers) suspended in 2 ml of canola oil. This was continued over a period of 138 days and then the dose of lutein was discontinued. Chemical analysis has shown that the product contains approximately 97% lutein—and 3% zeaxanthin. Fasting serum lutein/zeaxanthin levels of both individuals were determined by conventional HPLC on the morning of the first dose as a measure of base line. Blood samples were drawn at 2-3 hour intervals throughout the first day for both subjects and then daily for the next three days. Following the first week of supplementation, blood samples were drawn weekly. Blood was collected into a standard Vacutainer serum separator tube containing no anticoagulant. After allowing about 30 min for coagulation, the sample was centrifuged for 10 minutes and the serum removed by pipette. Serum samples were stored at −20° C. prior to analysis. […] 20 μl of an internal standard, monohexyl lutein ether, containing about 90 ng, was added to the solution at this point for quantification of the caratenoids by HPLC. […]

macular pigment [3] = assay: Macular pigment optical density by heterochromatic flicker photometry during lutein supplementation
Method: A trial was conducted to determine if dietary supplementation with lutein and zeaxanthin effectively can change the pigment levels in the macula. The optical density of the macula pigment was measured for each subject using the method of flicker photometry (Bone and Sparrock 1971; Bone et al 1992). The concentration of pigment in the macula is proportioned to its optical density and the actual amount of pigment was assumed to be proportional to concentration. Thus, optical density was taken as a measure of the total amount of pigment.
Two healthy adult males (of age/weight 42 year/60 kg and 51 years/61 kg) ingested the equivalent of 30 mg of lutein per day in the form of lutein esters (source: marigold flowers) suspended in 2 ml of canola oil. This was continued over a period of 138 days and then the dose of lutein was discontinued. Chemical analysis has shown that the product contains approximately 97% lutein—and 3% zeaxanthin. Fasting serum lutein/zeaxanthin levels of both individuals were determined by conventional HPLC on the morning of the first dose as a measure of base line. Blood samples were drawn at 2-3 hour intervals throughout the first day for both subjects and then daily for the next three days. Following the first week of supplementation, blood samples were drawn weekly. Blood was collected into a standard Vacutainer serum separator tube containing no anticoagulant. After allowing about 30 min for coagulation, the sample was centrifuged for 10 minutes and the serum removed by pipette. Serum samples were stored at −20° C. prior to analysis. Carotenoids ware extracted from the serum by a minor modification of widely used methods (Guiliano et al, 1993; Handelmann et al, 1992), 200 μl aliquots of serum were diluted with 2 mL of 50% ethanol/water to ensure precipitation of protein components. 20 μl of an internal standard, monohexyl lutein ether, containing about 90 ng, was added to the solution at this point for quantification of the caratenoids by HPLC. This solution was extracted 3 times with 2 mL portions of hexane by vortexing the sample for 1 min followed by centrifuging for 5 minutes and pipetting off the hexane layer. The three portions of hexane were dried under a stream of nitrogen gas and stared under nitrogen at −20° C. until analysis was completed.
The optical density of the macular pigment was measured for each subject using the method of heterochomatic flicker photometry (Bone and Sparrock, 1971; Bone et al, 1992). The concentration of pigment in the macula is proportional to its optical density and the actual amount of pigment was assumed to be proportional to concentration. Thus optical density was taken to be a measure of the total amount of pigment.
In the flicker method, a small visual stimulus is presented to the eye which alternates in wavelength between 460 nm, the peak absorbance wavelength of the macular pigment, and 540 nm where pigment absorbance is zero (Bone et al., 1992). Above a certain frequency, color fusion occurs but the stimulus continues to flicker. At a higher frequency, a critical condition can be reached where flicker can be eliminated only if the two wavelength components are matched in luminance. If the stimulus is viewed peripherally, so that the image falls outside the macula, neither wavelength is attenuated by the macular pigment. However, if the stimulus is viewed centrally, the intensity of the 460 nm light must be increased to compensate for absorption by the macular pigment in order to achieve a luminance match. Thus it is possible to determine the optical density of a subject's macular pigment at the peak wavelength, or indeed any other wavelength.
The apparatus consisted of a two-channel Maxwellian view system based on a single light source, a 75 W xenon arc lamp. The wavelengths of the two channels were determined by 460 nm and 540 nm interference filters respectively, having half-widths of 7 and 9 nm. […]

macular pigment [4] = assay: as above; settings: 30 mg/day lutein ester, increased from 0.3

skin colour of the palms of the hands [1]: turned a noticeable yellow colour | increase in serum lutein concentration (factor) [2]: about 10 times
Compound: CC1=C[C@H](O)CC(C)(C)[C@H]1/C=C/C(C)=C/C=C/C(C)=C/C=C/C=C(C)/C=C/C=C(C)/C=C/C1=C(C)C[C@@H](O)CC1(C)C [lutein]
day until which optical density continued to rise before plateau (macular pigment [3]; subject four, both eyes, dose discontinued at day 138): 200 days | slope of macular pigment optical density (linear least squares fit) (macular pigment [3]; subject four, left eye, day -7 to day 83 of lutein supplementation): 3.1×10^−3 absorbance units per week | macular pigment optical density, final average (macular pigment [3]; subject four, left eye, initial mean 0.76, p<0.001): 0.79 | slope of macular pigment optical density (linear least squares fit) (macular pigment [3]; subject four, right eye, day -7 to day 83 of lutein supplementation): 2.3×10^−3 absorbance units per week | macular pigment optical density, final average (macular pigment [3]; subject four, right eye, initial mean 0.66, p<0.001): 0.70 | macular pigment optical density, final average (macular pigment [3]; subject three, left eye, average of 15 measurements over 18 days at end of experiment, initial values 0.57 and 0.58, p<0.0005): 0.70 | slope of macular pigment optical density (linear least squares fit) (macular pigment [3]; subject three, left eye, day -7 to day 72 of lutein supplementation): 15.3×10^−3 absorbance units per week | macular pigment optical density, final average (macular pigment [3]; subject three, right eye, average of 15 measurements over 18 days at end of experiment, initial values 0.57 and 0.58, p<0.0005): 0.67 | day until which optical density continued to rise before plateau (macular pigment [3]; subject three, dose of lutein discontinued at day 138): ~180 days

Compound: lutein ester
macular pigment optical density (macular pigment [4]; subject one, both eyes, after 75 days, then plateau): 0.5 | macular pigment optical density (macular pigment [4]; subject two, left eye only): 0.5
